Holding throughout (format): cell-based
For test [1], the system named is J774A.1 (Mouse BALB/c monocyte macrophage cell line) cells. The test is described as follows: LPS-induced TNF-α secretion inhibition in J774A.1 cells. The following applies: J774.A1, 1 μM compound, graded compared to taurodeoxycholic acid (positive control), read-out: TNF-α production inhibition grade. Put shortly:
(§1)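 Grades (A >100%, B 50–100%, C 20–50%, D <20%) express cytokine suppression by 1 μM compound relative to taurodeoxycholic acid. LPS-induced TNF-α and LPS+ATP-induced IL-1β secretion were measured in murine J774A.1 macrophage cells.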

The subject of test [2] is U937 cells (human monocytic cell line). The experiment in a line: BzATP-induced IL-1β secretion inhibition in PMA-differentiated U937 cells. The following applies: U-937, U937 cells differentiated with PMA, read-out: IL-1β production inhibition grade (IC50). In short, it runs like this: (§2)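 Inhibition is given as IC50 (μM) in A-D bands, using distinct thresholds for TNF-α and for IL-1β. Secretion followed Pam2CSK4 stimulation (TNF-α) or BzATP stimulation (IL-1β) of compound-pretreated, PMA-differentiated U937 macrophages.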

Test [3] shares this test system. The experiment in a line: Pam2CSK4-induced TNF-α secretion inhibition in PMA-differentiated U937 cells. To be noted: U-937, U937 cells differentiated with PMA, read-out: TNF-α production inhibition grade (IC50). In short, it runs like this: as §2
Test [4] deals with J774A.1 (Mouse BALB/c monocyte macrophage cell line) cells. The test is described as follows: LPS+ATP-induced IL-1β secretion inhibition in J774A.1 cells. To be noted: J774.A1, 1 μM compound, graded compared to taurodeoxycholic acid (positive control), read-out: IL-1β production inhibition grade. Put shortly: as §1

Molecules are shown by their SMILES.

`CC[C@H]1[C@@H](O)[C@@H]2[C@H](C[C@H](O)[C@]3(C)[C@@H]([C@H](C)CCC(=O)N[C@H](C)CS(=O)(=O)O)CC[C@@H]23)[C@@]2(C)CC[C@@H](O)C[C@@H]12` [NC50029]: the inhibition at 1 µM in test [1] is below 20%; in test [4], 50 to 100%. For the same molecule, the IC50 is at least 200 nM in test [2] and 500 to 1000 nM in test [3].

As to `CC[C@H]1[C@@H](O)[C@@H]2[C@H](C[C@H](O)[C@]3(C)[C@@H]([C@H](C)CCC(=O)N[C@@H](CC(C)C)CS(=O)(=O)O)CC[C@@H]23)[C@@]2(C)CC[C@@H](O)C[C@@H]12` [NC50030], the inhibition at 1 µM in test [1] is below 20%; in test [4], 50 to 100%. Also, the IC50 was 100 to 200 nM in test [2] and at least 2000 nM in test [3].

As for `CC[C@H]1[C@@H](O)[C@@H]2[C@H](C[C@H](O)[C@]3(C)[C@@H]([C@H](C)CCC(=O)N[C@H](CC(C)C)CS(=O)(=O)O)CC[C@@H]23)[C@@]2(C)CC[C@@H](O)C[C@@H]12` [NC50031], the inhibition at 1 µM in test [1] is below 20%; in test [4] it was 50 to 100%. In addition, the IC50 is 50 to 100 nM in test [2] and at least 2000 nM in test [3].

Consider `CC[C@H]1[C@@H](O)[C@@H]2[C@H](C[C@H](O)[C@]3(C)[C@@H]([C@H](C)CCC(=O)NC4(CS(=O)(=O)O)CC4)CC[C@@H]23)[C@@]2(C)CC[C@@H](O)C[C@@H]12` [NC50032], for which the figures for the inhibition at 1 µM in test [1] and in test [4] were below 20% and 50 to 100%, respectively. Further, the IC50 in test [2] was 50 to 100 nM; in test [3], at least 2000 nM.

As a reminder, the inhibition is the relative decrease from the control value, in per cent. Broadly, the IC50 is the midpoint of a concentration-inhibition curve.

Source of the values: patent US20240391948A1, “NOVEL COMPOUND THAT INHIBITS TNF-ALPHA GENERATION AND INFLAMMASOME ACTIVITY AND PREPARATION METHOD THEREFOR” (SHAPERON INC., priority 2021, published 2024).
